In patent US20210386367A1, “DEVICES AND SYSTEMS FOR GASTROINTESTINAL MICROBIOME DETECTION AND MANIPULATION” (Progenity, Inc., priority 2018, published 2021):
≈ marks a conversion by molar mass, not a printed value.

Columns and labels:
[1] = tested on: Streptococcus spp. spontaneous mutants; assay: organism not typed; format: cell-based
Experimental: (§1) Select isolates were subcultured onto agar containing drug at the selection concentration, were identified by MALDI, and were frozen for broth microdilution MIC testing as described below.
(§2) To determine whether colonies growing on drug selection plates had elevated MIC values to the selecting antibiotic, susceptibility testing by broth microdilution was conducted on isolated mutants following methodology recommended by CLSI (1), (2), and (3) “Performance Standards for Antimicrobial Susceptibility Testing; Twenty-Eighth Informational Supplement.,” CLSI document M100-S28, 2018.
(§3) All wells in columns 2 through 12 of a standard 96-well microdilution plate (Costar 3795) were filled with 150 μL of the appropriate diluent. Then, 300 μL of the test agents were added to the wells of column 1 of the plates at […] the highest final concentration to be tested. Serial two-fold dilutions were made across the rows through column 11 using the Biomek 2000. The wells of column 12 contained no drug and served as the growth control wells. This plate served as the “mother plate” from which selected MIC assay plates or “daughter plates” were made.
(§4) 2 μL of drug solution from each well of a mother plate was added to each corresponding well of the daughter plate in a single step. A standardized inoculum of each aerobic test organism was prepared per CLSI methods to equal a 0.5 McFarland standard, followed by a dilution of 1:20 in MHB II. The plates were then inoculated with 10 μL of the diluted inoculum using the Biomek 2000 from low to high drug concentration, resulting in a final concentration of approximately 5×10^5 CFU/mL. An un-inoculated plate was incubated for the purpose of assessing solubility of the drug in the test media.
(§5) The plates for the aerobic tests were stacked 3-4 high, covered with a sterile lid on the top plate, and incubated aerobically at 35° C. for 18-20 hr. The MIC was recorded as the lowest concentration of drug that inhibited visible growth of the organism.

[2] = tested on: E. coli spontaneous mutants; assay: Broth microdilution MIC of spontaneous mutants; format: cell-based, Escherichia coli
Experimental: as §1, §2, §3, §4, §5

[3] = tested on: Bacteroides spp. spontaneous mutants; assay: Broth microdilution MIC of spontaneous mutants; format: cell-based
Experimental: as §1, §2, §3
Daughter plates for anaerobic organisms were transferred to a Bactron II anaerobic chamber (Sheldon Manufacturing Inc., Cornelius, Oreg.) to reduce for 1 hour prior to inoculation. The inoculum for each organism was prepared in the anaerobic chamber and dispensed into sterile disposable reservoirs. Inoculation was completed using a multichannel pipette to transfer 10 μL of the inoculum into each well of the daughter plate. This yielded a final cell concentration in the daughter plates of approximately 1×10^6 CFU/mL.

Q: What does the source list for `COc1c(N2C[C@@H]3CCCN[C@@H]3C2)c(F)cc2c(=O)c(C(=O)O)cn(C3CC3)c12` [MOX]?
A: MIC ([1]; S. agaloctiae ATCC 13813, selected on rifaximin 4X MIC, Colony A): 0.06 µg/mL (≈ 0.149 µM); MIC ([1]; S. agaloctiae ATCC 13813, selected on rifaximin 4X MIC, Colony B): 0.06 µg/mL (≈ 0.149 µM); MIC ([1]; S. agaloctiae ATCC 13813, selected on rifaximin 8X MIC, Colony A): 0.06 µg/mL (≈ 0.149 µM); MIC ([1]; S. agaloctiae ATCC 13813, selected on rifaximin 8X MIC, Colony B): 0.03 µg/mL (≈ 0.0747 µM); MIC ([1]; S. agaloctiae ATCC 13813 Parent): 0.06 µg/mL (≈ 0.149 µM); MIC ([1]; S. pneumoniae ATCC 49619, selected on rifaximin 4X MIC, Colony A): 0.06 µg/mL (≈ 0.149 µM); MIC ([1]; S. pneumoniae ATCC 49619, selected on rifaximin 4X MIC, Colony B): 0.06 µg/mL (≈ 0.149 µM); MIC ([1]; S. pneumoniae ATCC 49619, selected on rifaximin 8X MIC, Colony A): 0.06 µg/mL (≈ 0.149 µM); MIC ([1]; S. pneumoniae ATCC 49619, selected on rifaximin 8X MIC, Colony B): 0.06 µg/mL (≈ 0.149 µM); MIC ([1]; S. pneumoniae ATCC 49619 Parent): 0.12 µg/mL (≈ 0.299 µM); MIC ([1]; S. pyogenes ATCC 49399, selected on rifaximin 4X MIC, Colony A): 0.06 µg/mL (≈ 0.149 µM); MIC ([1]; S. pyogenes ATCC 49399, selected on rifaximin 4X MIC, Colony B): 0.06 µg/mL (≈ 0.149 µM); MIC ([1]; S. pyogenes ATCC 49399, selected on rifaximin 8X MIC, Colony A): 0.06 µg/mL (≈ 0.149 µM); MIC ([1]; S. pyogenes ATCC 49399, selected on rifaximin 8X MIC, Colony B): 0.06 µg/mL (≈ 0.149 µM); MIC ([1]; S. pyogenes ATCC 49399 Parent): 0.06 µg/mL (≈ 0.149 µM); MIC ([2]; E. coli ATCC 25922, selected on rifaximin 4X MIC, Colony A): 0.015 µg/mL; MIC ([2]; E. coli ATCC 25922, selected on rifaximin 4X MIC, Colony B): 0.015 µg/mL; MIC ([2]; E. coli ATCC 25922, selected on rifaximin 8X MIC, Colony A): 0.015 µg/mL; MIC ([2]; E. coli ATCC 25922, selected on rifaximin 8X MIC, Colony B): 0.015 µg/mL; MIC ([2]; E. coli ATCC 25922 Parent (Table 52)): 0.03 µg/mL; MIC ([2]; E. coli ATCC 35218, selected on rifaximin 4X MIC, Colony A): 0.03 µg/mL; MIC ([2]; E. coli ATCC 35218, selected on rifaximin 4X MIC, Colony B): 0.03 µg/mL; MIC ([2]; E. coli ATCC 35218, selected on rifaximin 8X MIC, Colony A): 0.03 µg/mL; MIC ([2]; E. coli ATCC 35218, selected on rifaximin 8X MIC, Colony B): 0.03 µg/mL; MIC ([2]; E. coli ATCC 35218 Parent (Table 52)): 0.03 µg/mL; MIC ([2]; E. coli MMX 1312, selected on ceftriaxone 4X MIC, Colony A): 0.03 µg/mL; MIC ([2]; E. coli MMX 1312, selected on ceftriaxone 4X MIC, Colony B): 0.06 µg/mL; MIC ([2]; E. coli MMX 1312, selected on ceftriaxone 4X MIC, Colony C): 0.03 µg/mL; MIC ([2]; E. coli MMX 1312, selected on ceftriaxone 8X MIC, Colony A): 0.03 µg/mL; MIC ([2]; E. coli MMX 1312, selected on ceftriaxone 8X MIC, Colony B): 0.03 µg/mL; MIC ([2]; E. coli MMX 1312, selected on ceftriaxone 8X MIC, Colony C): 0.03 µg/mL; MIC ([2]; E. coli MMX 1312, selected on rifaximin 4X MIC, Colony A): 0.03 µg/mL; MIC ([2]; E. coli MMX 1312, selected on rifaximin 4X MIC, Colony B): 0.03 µg/mL; MIC ([2]; E. coli MMX 1312, selected on rifaximin 8X MIC, Colony A): 0.03 µg/mL; MIC ([2]; E. coli MMX 1312, selected on rifaximin 8X MIC, Colony B): 0.03 µg/mL; MIC ([2]; E. coli MMX 1312 Parent): 0.03 µg/mL; MIC ([2]; E. coli MMX 1312 Parent (Table 49)): 0.03 µg/mL; MIC ([2]; E. coli MMX 1312 Parent (Table 52)): 0.03 µg/mL; MIC ([2]; E. coli MMX 1312 mutant selected on meropenem 4X MIC, colony A): 0.03 µg/mL; MIC ([2]; E. coli MMX 1312 mutant selected on meropenem 4X MIC, colony B): 0.03 µg/mL; MIC ([2]; E. coli MMX 1312 mutant selected on meropenem 4X MIC, colony C): 0.03 µg/mL; MIC ([2]; E. coli MMX 1312 mutant selected on meropenem 8X MIC, colony A): 0.03 µg/mL; MIC ([2]; E. coli MMX 1312 mutant selected on meropenem 8X MIC, colony B): 0.03 µg/mL; MIC ([2]; E. coli MMX 1312 mutant selected on meropenem 8X MIC, colony C): 0.03 µg/mL; MIC ([3]; B. fragilis ATCC 25285, selected on rifaximin 4X MIC, Colony A): 0.06 µg/mL; MIC ([3]; B. fragilis ATCC 25285, selected on rifaximin 4X MIC, Colony B): 0.12 µg/mL; MIC ([3]; B. fragilis ATCC 25285, selected on rifaximin 8X MIC, Colony A): 0.12 µg/mL; MIC ([3]; B. fragilis ATCC 25285, selected on rifaximin 8X MIC, Colony B): 0.12 µg/mL; MIC ([3]; B. fragilis ATCC 25285 Parent): 0.06 µg/mL; MIC ([3]; B. ovatus MMX 3503, selected on rifaximin 4X MIC, Colony A): 2 µg/mL; MIC ([3]; B. ovatus MMX 3503, selected on rifaximin 4X MIC, Colony B): 0.5 µg/mL; MIC ([3]; B. ovatus MMX 3503, selected on rifaximin 8X MIC, Colony A): 1 µg/mL; MIC ([3]; B. ovatus MMX 3503, selected on rifaximin 8X MIC, Colony B): 1 µg/mL; MIC ([3]; B. ovatus MMX 3503 Parent): 1 µg/mL; MIC ([3]; B. vulgatus ATCC 8482, selected on ceftriaxone 4X MIC, Colony A): 0.5 µg/mL; MIC ([3]; B. vulgatus ATCC 8482, selected on ceftriaxone 4X MIC, Colony B): 0.5 µg/mL; MIC ([3]; B. vulgatus ATCC 8482, selected on rifaximin 4X MIC, Colony A): 0.5 µg/mL; MIC ([3]; B. vulgatus ATCC 8482, selected on rifaximin 4X MIC, Colony B): 0.25 µg/mL; MIC ([3]; B. vulgatus ATCC 8482, selected on rifaximin 8X MIC, Colony A): 0.5 µg/mL; MIC ([3]; B. vulgatus ATCC 8482, selected on rifaximin 8X MIC, Colony B): 0.5 µg/mL; MIC ([3]; B. vulgatus ATCC 8482 Parent (Table 50)): 0.5 µg/mL; MIC ([3]; B. vulgatus ATCC 8482 Parent (Table 54)): 0.5 µg/mL
